{"source": "ChEMBL document CHEMBL1133902", "about": "“Biflavonoids as novel antituberculosis agents” (2001)"}
{"system": "Mycobacterium tuberculosis", "test": "Antituberculosis activity against Mycobacterium tuberculosis at a concentration of 12.5 ug/mL", "type": "functional", "units": {"inhibition at 12.5 µg/mL": "%"}}
{"compound": "O=c1cc(-c2ccc(Oc3c(-c4cccc([N+](=O)[O-])c4)oc4ccccc4c3=O)cc2)oc2ccccc12", "inhibition at 12.5 µg/mL": 61}
{"compound": "COc1ccc(-c2cc(=O)c3c(OC)cc(OC)c(C4C(=O)c5c(OC)cc(OC)cc5OC4c4ccc(OC)cc4)c3o2)cc1", "note": "(centres undefined)", "inhibition at 12.5 µg/mL": 95}
{"compound": "O=C1CC(c2ccc(O)cc2)Oc2cc(O)c(-c3c(O)cc(O)c4c3OC(c3ccc(O)cc3)CC4=O)c(O)c21", "note": "(centres undefined)", "inhibition at 12.5 µg/mL": 0}
{"compound": "COc1ccc(-c2cc(=O)c3c(OC)c(-c4cc(OC)ccc4-c4cc(=O)c5c(OC)cc(OC)cc5o4)c(OC)cc3o2)cc1", "inhibition at 12.5 µg/mL": 1}
{"compound": "O=c1cc(-c2cccc(-c3cccc4c(=O)cc(-c5ccccc5)oc34)c2)oc2ccccc12", "inhibition at 12.5 µg/mL": 49}
{"compound": "COc1ccc2c(c1)OC(c1ccccc1)C(C1C(=O)c3ccc(OC)cc3OC1c1ccccc1)C2=O", "note": "(centres undefined)", "inhibition at 12.5 µg/mL": 0}
{"compound": "CC(=O)Oc1ccc(C2CC(=O)c3c(cc(OC(C)=O)c(-c4c(OC(C)=O)cc(OC(C)=O)c5c4OC(c4ccc(OC(C)=O)cc4)CC5=O)c3OC(C)=O)O2)cc1", "note": "(centres undefined)", "inhibition at 12.5 µg/mL": 0}
{"compound": "O=C1c2c(O)cc(O)cc2OC(c2ccc(O)cc2)C1c1c(O)cc(O)c2c(=O)cc(-c3ccc(O)c(O)c3)oc12", "note": "(centres undefined)", "inhibition at 12.5 µg/mL": 0}
{"compound": "COc1ccc(C2CC(=O)c3c(OC)cc(OC)c(C4C(=O)c5c(OC)cc(OC)cc5OC4c4ccc(OC)cc4)c3O2)cc1", "note": "(centres undefined)", "inhibition at 12.5 µg/mL": 87}
{"compound": "COc1ccc(C2CC(=O)c3c(cc(OC)c(-c4c(OC)cc5c(c4OC)C(=O)CC(c4ccc(OC)cc4)O5)c3OC)O2)cc1", "note": "(centres undefined)", "inhibition at 12.5 µg/mL": 2}
{"compound": "O=C1CC(c2ccc(O)c(O)c2)Oc2c1c(O)cc(O)c2C1C(=O)c2c(O)cc(O)cc2OC1c1ccc(O)cc1", "note": "(centres undefined)", "inhibition at 12.5 µg/mL": 0}
{"compound": "O=c1cc(-c2ccccc2)oc2ccc(-c3ccccc3-c3cc(=O)c4ccccc4o3)cc12", "inhibition at 12.5 µg/mL": 9}
{"compound": "CC(=O)Oc1ccc(C2Oc3cc(OC(C)=O)cc(OC(C)=O)c3C(=O)C2c2c(OC(C)=O)cc(OC(C)=O)c3c2OC(c2ccc(OC(C)=O)c(OC(C)=O)c2)CC3=O)cc1", "note": "(centres undefined)", "inhibition at 12.5 µg/mL": 0}
{"compound": "COc1ccc(-c2cc(=O)c3c(OC)c(-c4c(OC)cc5oc(-c6ccc(OC)cc6)cc(=O)c5c4OC)c(OC)cc3o2)cc1", "inhibition at 12.5 µg/mL": 96}
{"compound": "O=C1CC(c2ccc(O)cc2)Oc2cc(O)c(-c3c(O)cc4c(c3O)C(=O)CC(c3ccc(O)cc3)O4)c(O)c21", "note": "(centres undefined)", "inhibition at 12.5 µg/mL": 0}
{"compound": "O=c1cc(-c2cccc(-c3ccc4c(=O)cc(-c5ccccc5)oc4c3)c2)oc2ccccc12", "inhibition at 12.5 µg/mL": 0}
{"compound": "COc1ccc(-c2oc3cc(OC)cc(OC)c3c(=O)c2-c2c(-c3ccc(OC)cc3)oc3cc(OC)cc(OC)c3c2=O)cc1", "inhibition at 12.5 µg/mL": 0}
{"compound": "O=c1cc(-c2ccccc2-c2cccc3c(=O)cc(-c4ccccc4)oc23)oc2ccccc12", "inhibition at 12.5 µg/mL": 0}
{"compound": "CC(=O)Oc1ccc(C2CC(=O)c3c(cc(OC(C)=O)c(-c4c(OC(C)=O)cc5c(c4OC(C)=O)C(=O)CC(c4ccc(OC(C)=O)cc4)O5)c3OC(C)=O)O2)cc1", "note": "(centres undefined)", "inhibition at 12.5 µg/mL": 0}
{"compound": "O=C1CC(c2ccc(O)c(O)c2)Oc2c1c(O)cc(O[C@]1(O)O[C@H](CO)[C@@H](O)C(O)[C@H]1O)c2C1C(=O)c2c(O)cc(O)cc2OC1c1ccc(O)cc1", "note": "(single isomer, unassigned)", "inhibition at 12.5 µg/mL": 0}
{"compound": "O=C1CC(c2ccc(O)cc2)Oc2c1c(O)cc(O[C@]1(O)O[C@H](CO)[C@@H](O)C(O)[C@H]1O)c2C1C(=O)c2c(O)cc(O)cc2OC1c1ccc(O)cc1", "note": "(single isomer, unassigned)", "inhibition at 12.5 µg/mL": 0}
{"compound": "O=C1c2c(O)cc(O)cc2OC(c2ccc(O)cc2)C1c1c(O[C@]2(O)O[C@H](CO)[C@@H](O)C(O)[C@H]2O)cc(O)c2c(=O)cc(-c3ccc(O)cc3)oc12", "note": "(single isomer, unassigned)", "inhibition at 12.5 µg/mL": 0}
{"compound": "CC(=O)OC[C@H]1O[C@@](O)(Oc2cc(OC(C)=O)c3c(c2C2C(=O)c4c(OC(C)=O)cc(OC(C)=O)cc4OC2c2ccc(OC(C)=O)cc2)OC(c2ccc(OC(C)=O)cc2)CC3=O)[C@H](O)C(O)[C@@H]1O", "note": "(single isomer, unassigned)", "inhibition at 12.5 µg/mL": 0}
{"compound": "O=c1cc(-c2ccc(O)c(-c3c(O)cc(O)c4c(=O)cc(-c5ccc(O)cc5)oc34)c2)oc2cc(O)cc(O)c12", "note": "[AMENTOFLAVONE]", "inhibition at 12.5 µg/mL": 0}
{"compound": "O=c1cc(-c2ccc(Oc3c(O)cc4oc(-c5ccc(O)cc5)cc(=O)c4c3O)cc2)oc2cc(O)cc(O)c12", "note": "[HINOKIFLAVONE]", "inhibition at 12.5 µg/mL": 0}
{"compound": "O=c1cc(-c2ccc(O)c(-c3c(O)cc4oc(-c5ccc(O)cc5)cc(=O)c4c3O)c2)oc2cc(O)cc(O)c12", "note": "[ROBUSTAFLAVONE]", "inhibition at 12.5 µg/mL": 0}
{"system": "Mycobacterium tuberculosis", "test": "Minimum inhibitory concentration against Mycobacterium tuberculosis", "type": "functional", "units": {"MIC": "µg/mL"}}
{"compound": "COc1ccc(-c2cc(=O)c3c(OC)cc(OC)c(C4C(=O)c5c(OC)cc(OC)cc5OC4c4ccc(OC)cc4)c3o2)cc1", "note": "(centres undefined)", "MIC": 12.5}
{"compound": "COc1ccc(C2CC(=O)c3c(OC)cc(OC)c(C4C(=O)c5c(OC)cc(OC)cc5OC4c4ccc(OC)cc4)c3O2)cc1", "note": "(centres undefined)", "MIC": "> 12.5"}
{"compound": "COc1ccc(-c2cc(=O)c3c(OC)c(-c4c(OC)cc5oc(-c6ccc(OC)cc6)cc(=O)c5c4OC)c(OC)cc3o2)cc1", "MIC": "> 12.5"}
